{"source": "the supplement of paper PMC10307832", "assay_in_all_cases": "relative viability (nuclei count vs DMSO), 5 days (fraction); higher = more cells survive", "key": {"[1]": {"compound": "CC1=CN=C(N=C1C2=CNC(=C2)C(=O)N[C@H](CO)C3=CC(=CC=C3)Cl)NC4=C(C=C(C=C4)F)Cl [VX-11e] + Nc1ncn([C@H]2C[C@H](O)[C@@H](CO)O2)c(=O)n1 [Decitabine] (partner 2 µM)", "method_in_brief": "(§1)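 Lung cancer cell lines in 1536-well plates were dosed by pin tool the day after seeding, either with one drug alone or with a fixed anchor-drug dose plus five library-drug doses (not always all listed) in √10 steps. After 5 days, cells were fixed and their nuclei stained in one step (final 0.05% Triton X-100, 1% formaldehyde, 1 ug/ml Hoechst), then counted on 4× images. Relative viability is the nuclei count in treated wells divided by that in vehicle wells. Values are medians of duplicate plates.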"}, "[2]": {"compound": "CC1=CN=C(N=C1C2=CNC(=C2)C(=O)N[C@H](CO)C3=CC(=CC=C3)Cl)NC4=C(C=C(C=C4)F)Cl [VX-11e] + Cc1nc(NC(=O)N2CCC[C@H]2C(N)=O)sc1-c1ccnc(C(C)(C)C(F)(F)F)c1 [Alpelisib] (partner 2 µM)", "method_in_brief": "as §1"}, "[3]": {"compound": "CC1=CN=C(N=C1C2=CNC(=C2)C(=O)N[C@H](CO)C3=CC(=CC=C3)Cl)NC4=C(C=C(C=C4)F)Cl [VX-11e] + C[C@]1(O)C[C@@H](c2nc(-c3ccc4ccc(-c5ccccc5)nc4c3)c3c(N)nccn32)C1 [Linsitinib] (partner 1 µM)", "method_in_brief": "as §1"}, "[4]": {"compound": "CC1=CN=C(N=C1C2=CNC(=C2)C(=O)N[C@H](CO)C3=CC(=CC=C3)Cl)NC4=C(C=C(C=C4)F)Cl [VX-11e] + CS(=O)(=O)N1CCN(Cc2cc3nc(-c4cccc5[nH]ncc45)nc(N4CCOCC4)c3s2)CC1 [Pictilisib] (partner 1 µM)", "method_in_brief": "as §1"}}}
{"cell line": "HCC-78", "values": [{"measurement": "relative viability", "setting": "[1]; first compound 0.04 µM", "result": 0.721}, {"measurement": "relative viability", "setting": "[1]; first compound 0.1265 µM", "result": 0.698}, {"measurement": "relative viability", "setting": "[1]; first compound 0.4 µM", "result": 0.676}, {"measurement": "relative viability", "setting": "[1]; first compound 1.265 µM", "result": 0.775}, {"measurement": "relative viability", "setting": "[1]; first compound 4 µM", "result": 0.786}, {"measurement": "relative viability", "setting": "[2]; first compound 0.04 µM", "result": 0.313}, {"measurement": "relative viability", "setting": "[2]; first compound 0.1265 µM", "result": 0.348}, {"measurement": "relative viability", "setting": "[2]; first compound 0.4 µM", "result": 0.381}, {"measurement": "relative viability", "setting": "[2]; first compound 1.265 µM", "result": 0.276}, {"measurement": "relative viability", "setting": "[2]; first compound 4 µM", "result": 0.312}, {"measurement": "relative viability", "setting": "[3]; first compound 0.04 µM", "result": 0.584}, {"measurement": "relative viability", "setting": "[3]; first compound 0.1265 µM", "result": 0.5}, {"measurement": "relative viability", "setting": "[3]; first compound 0.4 µM", "result": 0.541}, {"measurement": "relative viability", "setting": "[3]; first compound 1.265 µM", "result": 0.403}, {"measurement": "relative viability", "setting": "[3]; first compound 4 µM", "result": 0.382}, {"measurement": "relative viability", "setting": "[4]; first compound 0.04 µM", "result": 0.23}, {"measurement": "relative viability", "setting": "[4]; first compound 0.1265 µM", "result": 0.185}, {"measurement": "relative viability", "setting": "[4]; first compound 0.4 µM", "result": 0.31}, {"measurement": "relative viability", "setting": "[4]; first compound 1.265 µM", "result": 0.189}, {"measurement": "relative viability", "setting": "[4]; first compound 4 µM", "result": 0.224}]}
{"cell line": "NCI-H1755", "values": [{"measurement": "relative viability", "setting": "[1]; first compound 0.04 µM", "result": 0.7}, {"measurement": "relative viability", "setting": "[1]; first compound 0.1265 µM", "result": 0.736}, {"measurement": "relative viability", "setting": "[1]; first compound 0.4 µM", "result": 0.665}, {"measurement": "relative viability", "setting": "[1]; first compound 1.265 µM", "result": 0.716}, {"measurement": "relative viability", "setting": "[1]; first compound 4 µM", "result": 0.661}, {"measurement": "relative viability", "setting": "[2]; first compound 0.04 µM", "result": 0.962}, {"measurement": "relative viability", "setting": "[2]; first compound 0.1265 µM", "result": 0.885}, {"measurement": "relative viability", "setting": "[2]; first compound 0.4 µM", "result": 0.882}, {"measurement": "relative viability", "setting": "[2]; first compound 1.265 µM", "result": 0.931}, {"measurement": "relative viability", "setting": "[2]; first compound 4 µM", "result": 0.497}, {"measurement": "relative viability", "setting": "[3]; first compound 0.04 µM", "result": 1.03}, {"measurement": "relative viability", "setting": "[3]; first compound 0.1265 µM", "result": 0.976}, {"measurement": "relative viability", "setting": "[3]; first compound 0.4 µM", "result": 0.95}, {"measurement": "relative viability", "setting": "[3]; first compound 1.265 µM", "result": 0.94}, {"measurement": "relative viability", "setting": "[3]; first compound 4 µM", "result": 0.553}, {"measurement": "relative viability", "setting": "[4]; first compound 0.04 µM", "result": 0.397}, {"measurement": "relative viability", "setting": "[4]; first compound 0.1265 µM", "result": 0.337}, {"measurement": "relative viability", "setting": "[4]; first compound 0.4 µM", "result": 0.152}, {"measurement": "relative viability", "setting": "[4]; first compound 1.265 µM", "result": 0.357}, {"measurement": "relative viability", "setting": "[4]; first compound 4 µM", "result": 0.16}]}
{"cell line": "NCI-H2405", "values": [{"measurement": "relative viability", "setting": "[1]; first compound 0.04 µM", "result": 0.761}, {"measurement": "relative viability", "setting": "[1]; first compound 0.1265 µM", "result": 0.733}, {"measurement": "relative viability", "setting": "[1]; first compound 0.4 µM", "result": 0.305}, {"measurement": "relative viability", "setting": "[1]; first compound 1.265 µM", "result": 0.776}, {"measurement": "relative viability", "setting": "[1]; first compound 4 µM", "result": 0.443}, {"measurement": "relative viability", "setting": "[2]; first compound 0.04 µM", "result": 0.857}, {"measurement": "relative viability", "setting": "[2]; first compound 0.1265 µM", "result": 0.726}, {"measurement": "relative viability", "setting": "[2]; first compound 1.265 µM", "result": 0.602}, {"measurement": "relative viability", "setting": "[2]; first compound 4 µM", "result": 0.209}, {"measurement": "relative viability", "setting": "[3]; first compound 0.04 µM", "result": 0.933}, {"measurement": "relative viability", "setting": "[3]; first compound 0.1265 µM", "result": 0.787}, {"measurement": "relative viability", "setting": "[3]; first compound 1.265 µM", "result": 0.817}, {"measurement": "relative viability", "setting": "[3]; first compound 4 µM", "result": 0.272}, {"measurement": "relative viability", "setting": "[4]; first compound 0.04 µM", "result": 0.3}, {"measurement": "relative viability", "setting": "[4]; first compound 0.1265 µM", "result": 0.388}, {"measurement": "relative viability", "setting": "[4]; first compound 1.265 µM", "result": 0.412}, {"measurement": "relative viability", "setting": "[4]; first compound 4 µM", "result": 0.125}]}
{"cell line": "ABC-1", "values": [{"measurement": "relative viability", "setting": "[1]; first compound 0.04 µM", "result": 1.11}, {"measurement": "relative viability", "setting": "[1]; first compound 0.4 µM", "result": 0.992}, {"measurement": "relative viability", "setting": "[1]; first compound 1.265 µM", "result": 1.06}, {"measurement": "relative viability", "setting": "[1]; first compound 4 µM", "result": 0.977}, {"measurement": "relative viability", "setting": "[2]; first compound 0.04 µM", "result": 0.988}, {"measurement": "relative viability", "setting": "[2]; first compound 0.1265 µM", "result": 0.735}, {"measurement": "relative viability", "setting": "[2]; first compound 0.4 µM", "result": 0.832}, {"measurement": "relative viability", "setting": "[2]; first compound 1.265 µM", "result": 0.857}, {"measurement": "relative viability", "setting": "[2]; first compound 4 µM", "result": 0.725}, {"measurement": "relative viability", "setting": "[3]; first compound 0.04 µM", "result": 0.814}, {"measurement": "relative viability", "setting": "[3]; first compound 0.1265 µM", "result": 0.792}, {"measurement": "relative viability", "setting": "[3]; first compound 0.4 µM", "result": 0.597}, {"measurement": "relative viability", "setting": "[3]; first compound 1.265 µM", "result": 0.531}, {"measurement": "relative viability", "setting": "[3]; first compound 4 µM", "result": 0.538}, {"measurement": "relative viability", "setting": "[4]; first compound 0.04 µM", "result": 0.615}, {"measurement": "relative viability", "setting": "[4]; first compound 0.1265 µM", "result": 0.539}, {"measurement": "relative viability", "setting": "[4]; first compound 0.4 µM", "result": 0.809}, {"measurement": "relative viability", "setting": "[4]; first compound 1.265 µM", "result": 0.518}, {"measurement": "relative viability", "setting": "[4]; first compound 4 µM", "result": 0.466}]}
